Results reported in patent publication US8455475B2 (Gruenenthal GmbH, priority 2009, dated 2013).

molecular target: T1, rat B1R (bradykinin receptor 1) (Rattus norvegicus, UniProt P97583); assay: FLIPR Ca2+ assay (Fluo-4) on CHO K1 cells stably transfected with the B1R gene of the rat (rB1R cells): % inhibition at 10 μM / IC50, agonist Des-Arg9-bradykinin; format: cell-based; conditions: CHO-K1, rat B1R
T1 construct: expressed in transfected cells; host or cells: CHO K1 cells
T1 sequence (P97583 1-337): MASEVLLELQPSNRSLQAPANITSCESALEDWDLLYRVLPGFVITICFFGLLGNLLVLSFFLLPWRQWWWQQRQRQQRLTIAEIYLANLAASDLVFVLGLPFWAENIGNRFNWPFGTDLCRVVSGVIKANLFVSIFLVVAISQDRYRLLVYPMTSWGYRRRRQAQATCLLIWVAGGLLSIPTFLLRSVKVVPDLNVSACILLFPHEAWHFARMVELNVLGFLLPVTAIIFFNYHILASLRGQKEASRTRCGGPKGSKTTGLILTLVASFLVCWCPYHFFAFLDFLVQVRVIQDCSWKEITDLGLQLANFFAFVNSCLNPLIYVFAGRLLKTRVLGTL
Summary of the method: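 Antagonism is measured as the drop in peak Fluo-4 Ca2+ signal when the EC80 agonist follows 10–20 min compound exposure. The single-point screen uses 10 μM; IC50 uses several concentrations. Values are given as % of maximal achievable inhibition.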

Row | inhibition at 10 µM [%] | SMILES
1 | 90 | CN(C)c1ncc(CN2CCC3(CC2)CCN(C(=O)c2ccc4c(c2)C(NC(=O)c2ccccc2Cl)CC4)C3)cn1 (stereo not shown) [IND_CC-566, 2-Chloro-N-[6-[8-[(2-dimethylamino-pyrimidin-5-yl)-methyl]-2,8-diazaspiro[4.5]decane-2-carbonyl]-2,3-dihydro-1H-inden-1-yl]-benzamide]
2 | 100 | O=C(NC1CCc2ccc(C(=O)N3CCC4(CCN(Cc5ccc6ncccc6c5)CC4)C3)cc21)c1ccccc1Cl (stereo not shown) [IND_CC-567, 2-Chloro-N-[6-[8-(quinolin-6-yl-methyl)-2,8-diazaspiro[4.5]decane-2-carbonyl]-2,3-dihydro-1H-inden-1-yl]-benzamide]
3 | 52 | N#Cc1ccc(CN2CCC3(CC2)CCN(C(=O)c2ccc4c(c2)C(NC(=O)c2sccc2Cl)CC4)C3)cc1 (stereo not shown) [IND_CC-569, 3-Chloro-N-[6-[8-[(4-cyano-phenyl)-methyl]-2,8-diazaspiro[4.5]decane-2-carbonyl]-2,3-dihydro-1H-inden-1-yl]-thiophene-2-carboxylic acid amide]
4 | 57 | O=C(NC1CCc2ccc(C(=O)N3CCC4(CCN(Cc5ccc6ncccc6c5)CC4)C3)cc21)c1sccc1Cl (stereo not shown) [IND_CC-570, 3-Chloro-N-[6-[8-(quinolin-6-yl-methyl)-2,8-diazaspiro[4.5]decane-2-carbonyl]-2,3-dihydro-1H-inden-1-yl]-thiophene-2-carboxylic acid amide]
5 | 52 | O=C(NC1CCc2ccc(C(=O)N3CCC4(CCN(Cc5ccc6nccnc6c5)CC4)C3)cc21)c1sccc1Cl (stereo not shown) [IND_CC-571, 3-Chloro-N-[6-[8-(quinoxalin-6-yl-methyl)-2,8-diazaspiro[4.5]decane-2-carbonyl]-2,3-dihydro-1H-inden-1-yl]-thiophene-2-carboxylic acid amide]
6 | 80 | CN(C(=O)c1ccccc1Cl)C1CCc2ccc(C(=O)N3CCC4(CCN(Cc5cccc(C#N)c5)CC4)C3)cc21 (stereo not shown) [IND_CC-572, 2-Chloro-N-[6-[8-[(3-cyano-phenyl)-methyl]-2,8-diazaspiro[4.5]decane-2-carbonyl]-2,3-dihydro-1H-inden-1-yl]-N-methyl-benzamide]
7 | 78 | O=C(NC1CCc2ccc(C(=O)N3CCC4(CCN(C(=O)c5ccc(F)cc5Cl)CC4)C3)cc21)c1ccccc1Cl (stereo not shown) [IND_CC-575, 2-Chloro-N-[6-[8-(2-chloro-4-fluoro-benzoyl)-2,8-diazaspiro[4.5]decane-2-carbonyl]-2,3-dihydro-1H-inden-1-yl]-benzamide]
8 | 79 | O=C(NC1CCc2ccc(C(=O)N3CCC4(CCN(C(=O)c5ccc(F)cc5F)CC4)C3)cc21)c1ccccc1Cl (stereo not shown) [IND_CC-576, 2-Chloro-N-[6-[8-(2,4-difluoro-benzoyl)-2,8-diazaspiro[4.5]decane-2-carbonyl]-2,3-dihydro-1H-inden-1-yl]-benzamide]
9 | 79 | Cn1nc(C(C)(C)C)cc1C(=O)N1CCC2(CCN(C(=O)c3ccc4c(c3)C(NC(=O)c3ccccc3Cl)CC4)C2)CC1 (stereo not shown) [IND_CC-578, N-[6-[8-(5-tert-Butyl-2-methyl-2H-pyrazole-3-carbonyl)-2,8-diazaspiro-[4.5]decane-2-carbonyl]-2,3-dihydro-1H-inden-1-yl]-2-chloro-benzamide]
10 | 57 | Cc1cc(C(=O)N2CCC3(CCN(C(=O)c4ccc5c(c4)C(NC(=O)c4ccccc4Cl)CC5)C3)CC2)n(C(C)(C)C)n1 (stereo not shown) [IND_CC-579, N-[6-[8-(2-tert-Butyl-5-methyl-2H-pyrazole-3-carbonyl)-2,8-diazaspiro-[4.5]decane-2-carbonyl]-2,3-dihydro-1H-inden-1-yl]-2-chloro-benzamide]
11 | 81 | COc1cc(C)c(C(=O)NC2CCc3ccc(C(=O)N4CCC5(CCN(C(=O)c6cc(C(C)(C)C)nn6C)CC5)C4)cc32)c(C)c1 (stereo not shown) [IND_CC-580, N-[6-[8-(5-tert-Butyl-2-methyl-2H-pyrazole-3-carbonyl)-2,8-diazaspiro[4.5]decane-2-carbonyl]-2,3-dihydro-1H-inden-1-yl]-4-methoxy-2,6-dimethyl-benzamide]
12 | 67 | COc1cc(C)c(C(=O)NC2CCc3ccc(C(=O)N4CCC5(CCN(C(=O)c6cc(C)nn6C(C)(C)C)CC5)C4)cc32)c(C)c1 (stereo not shown) [IND_CC-581, N-[6-[8-(2-tert-Butyl-5-methyl-2H-pyrazole-3-carbonyl)-2,8-diazaspiro[4.5]decane-2-carbonyl]-2,3-dihydro-1H-inden-1-yl]-4-methoxy-2,6-dimethyl-benzamide]
13 | 58 | O=C(NC1CCc2ccc(C(=O)N3CCC4(CCN(C(=O)C5CC5)CC4)C3)cc21)c1sccc1Cl (stereo not shown) [IND_CC-582, 3-Chloro-N-[6-[8-(cyclopropanecarbonyl)-2,8-diazaspiro[4.5]decane-2-carbonyl]-2,3-dihydro-1H-inden-1-yl]-thiophene-2-carboxylic acid amide]
14 | 75 | CC(C)(C)CC(=O)N1CCC2(CC1)CCN(C(=O)c1ccc3c(c1)C(NC(=O)c1sccc1Cl)CC3)C2 (stereo not shown) [IND_CC-583, 3-Chloro-N-[6-[8-(3,3-dimethyl-butanoyl)-2,8-diazaspiro[4.5]decane-2-carbonyl]-2,3-dihydro-1H-inden-1-yl]-thiophene-2-carboxylic acid amide]
15 | 63 | O=C(NC1CCc2ccc(C(=O)N3CCC4(CCN(C(=O)c5ccc(F)cc5Cl)CC4)C3)cc21)c1sccc1Cl (stereo not shown) [IND_CC-584, 3-Chloro-N-[6-[8-(2-chloro-4-fluoro-benzoyl)-2,8-diazaspiro[4.5]decane-2-carbonyl]-2,3-dihydro-1H-inden-1-yl]-thiophene-2-carboxylic acid amide]
16 | 52 | O=C(NC1CCc2ccc(C(=O)N3CCC4(CCN(C(=O)c5ccc(F)cc5F)CC4)C3)cc21)c1sccc1Cl (stereo not shown) [IND_CC-585, 3-Chloro-N-[6-[8-(2,4-difluoro-benzoyl)-2,8-diazaspiro[4.5]decane-2-carbonyl]-2,3-dihydro-1H-inden-1-yl]-thiophene-2-carboxylic acid amide]
17 | 76 | O=C(NC1CCc2ccc(C(=O)N3CCC4(CCN(C(=O)Cc5ccc(Cl)cc5)CC4)C3)cc21)c1sccc1Cl (stereo not shown) [IND_CC-586, 3-Chloro-N-[6-[8-[2-(4-chlorophenyl)-acetyl]-2,8-diazaspiro[4.5]decane-2-carbonyl]-2,3-dihydro-1H-inden-1-yl]-thiophene-2-carboxylic acid amide]
18 | 71 | Cn1nc(C(C)(C)C)cc1C(=O)N1CCC2(CCN(C(=O)c3ccc4c(c3)C(NC(=O)c3sccc3Cl)CC4)C2)CC1 (stereo not shown) [IND_CC-587, N-[6-[8-(5-tert-Butyl-2-methyl-2H-pyrazole-3-carbonyl)-2,8-diazaspiro[4.5]-decane-2-carbonyl]-2,3-dihydro-1H-inden-1-yl]-3-chloro-thiophene-2-carboxylic acid amide]
19 | 61 | Cc1cc(C(=O)N2CCC3(CCN(C(=O)c4ccc5c(c4)C(NC(=O)c4sccc4Cl)CC5)C3)CC2)n(C(C)(C)C)n1 (stereo not shown) [IND_CC-588, N-[6-[8-(2-tert-Butyl-5-methyl-2H-pyrazole-3-carbonyl)-2,8-diazaspiro[4.5]-decane-2-carbonyl]-2,3-dihydro-1H-inden-1-yl]-3-chloro-thiophene-2-carboxylic acid amide]
20 | 81 | CN(C(=O)c1ccccc1Cl)C1CCc2ccc(C(=O)N3CCC4(CCN(C(=O)C5CC5)CC4)C3)cc21 (stereo not shown) [IND_CC-589, 2-Chloro-N-[6-[8-(cyclopropanecarbonyl)-2,8-diazaspiro[4.5]decane-2-carbonyl]-2,3-dihydro-1H-inden-1-yl]-N-methyl-benzamide]
21 | 86 | CN(C(=O)c1ccccc1Cl)C1CCc2ccc(C(=O)N3CCC4(CCN(C(=O)CC(C)(C)C)CC4)C3)cc21 (stereo not shown) [IND_CC-590, 2-Chloro-N-[6-[8-(3,3-dimethyl-butanoyl)-2,8-diazaspiro[4.5]decane-2-carbonyl]-2,3-dihydro-1H-inden-1-yl]-N-methyl-benzamide]
22 | 62 | CN(C(=O)c1ccccc1Cl)C1CCc2ccc(C(=O)N3CCC4(CCN(C(=O)c5ccc(F)cc5Cl)CC4)C3)cc21 (stereo not shown) [IND_CC-591, 2-Chloro-N-[6-[8-(2-chloro-4-fluoro-benzoyl)-2,8-diazaspiro[4.5]decane-2-carbonyl]-2,3-dihydro-1H-inden-1-yl]-N-methyl-benzamide]
23 | 85 | CN(C(=O)c1ccccc1Cl)C1CCc2ccc(C(=O)N3CCC4(CCN(C(=O)Cc5ccc(Cl)cc5)CC4)C3)cc21 (stereo not shown) [IND_CC-592, 2-Chloro-N-[6-[8-[2-(4-chlorophenyl)-acetyl]-2,8-diazaspiro[4.5]decane-2-carbonyl]-2,3-dihydro-1H-inden-1-yl]-N-methyl-benzamide]
24 | 50 | CN(C(=O)c1ccccc1Cl)C1CCc2ccc(C(=O)N3CCC4(CCN(C(=O)c5cc(C(C)(C)C)nn5C)CC4)C3)cc21 (stereo not shown) [IND_CC-593, N-[6-[8-(5-tert-Butyl-2-methyl-2H-pyrazole-3-carbonyl)-2,8-diazaspiro[4.5]-decane-2-carbonyl]-2,3-dihydro-1H-inden-1-yl]-2-chloro-N-methyl-benzamide]
25 | 91 | O=C(NC1CCc2ccc(C(=O)N3CCC4(CC3)CCN(C(=O)c3cnccn3)CC4)cc21)c1ccccc1Cl (stereo not shown) [IND_CC-594, 2-Chloro-N-[6-[9-(pyrazine-2-carbonyl)-3,9-diazaspiro[5.5]undecane-3-carbonyl]-2,3-dihydro-1H-inden-1-yl]-benzamide]
